Data set [1] concerns the target T1, Trichoderma reesei Bgl1 variant Bgl1-var-03, V43L (numbered per mature Bgl1, SEQ ID NO:3) (Trichoderma reesei, UniProt Q12715, V74L).
T1 construct: diluted fermentation product
T1 sequence (Q12715 32-744 V74L): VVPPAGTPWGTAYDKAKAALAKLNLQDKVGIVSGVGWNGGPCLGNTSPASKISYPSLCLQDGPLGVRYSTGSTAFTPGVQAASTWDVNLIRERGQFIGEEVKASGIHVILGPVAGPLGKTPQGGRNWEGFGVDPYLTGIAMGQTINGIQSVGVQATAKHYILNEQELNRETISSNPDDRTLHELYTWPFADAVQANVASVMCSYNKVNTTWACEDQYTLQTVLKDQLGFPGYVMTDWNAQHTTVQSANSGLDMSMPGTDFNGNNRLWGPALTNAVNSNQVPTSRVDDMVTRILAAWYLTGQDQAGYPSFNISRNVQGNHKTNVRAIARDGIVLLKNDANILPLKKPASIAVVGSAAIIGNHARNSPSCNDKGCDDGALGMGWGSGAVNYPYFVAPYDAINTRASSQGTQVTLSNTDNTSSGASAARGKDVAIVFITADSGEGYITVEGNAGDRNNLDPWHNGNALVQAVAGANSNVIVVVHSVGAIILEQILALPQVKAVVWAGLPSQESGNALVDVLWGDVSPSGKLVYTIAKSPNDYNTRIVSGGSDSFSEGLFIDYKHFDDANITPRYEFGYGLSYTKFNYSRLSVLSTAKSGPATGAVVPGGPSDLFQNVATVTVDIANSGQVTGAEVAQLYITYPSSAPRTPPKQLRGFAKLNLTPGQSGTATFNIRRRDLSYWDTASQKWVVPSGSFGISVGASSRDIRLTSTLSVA
The data set can be described thus: steady state kinetics, hydrolysis of pNpG. Format: biochemical. The text has this: (§1) The Bgl1 variants of the table above were produced as follows. The nucleotide sequences encoding these variants were synthesized by an external vendor (BaseClear, Leiden, the Netherlands), and cloned into the pTTTpyr2 vector (see, e.g., published PCT application WO2014029808). Protoplasts of a Trichoderma reesei strain (e.g., the hexa-delete strain of International Publication WO05/001036) with its cbh1, cbh2, eg1, eg2, eg3, and bgl1 deleted) were transformed with plasmid DNA encoding the variants and wild type. The resulting transformants were fermented using standard Trichoderma reesei fermentation procedures.
(§2) Variants 02, 03 and 12 were diluted and incubated with varying concentrations of para-nitrophenol-beta-D-xylopyranoside (or para-nitrophenol-beta-D-xyloside) (pNpX) and para-nitrophenol-beta-D-glucopyranoside (pNpG) in the concentration range of 0.1-9 mM at 37° C. for 30 minutes. Reactions were stopped by addition of 100 μL 0.5 M sodium carbonate and absorbance was measured at 410 nm. Background subtracted OD410 absorbances were plotted against substrate concentration (FIG. 6B-E) and the data was fitted with a function for Michaelis-Menten kinetics using the statistical software package R. Michaelis constants and relative maximum velocities for hydrolysis of pNpX and pNpG were reported in Tables 6 and 7, below, respectively.

The target in data set [2] is T2, Trichoderma reesei Bgl1 variant Bgl1-var-02, V43F (numbered per mature Bgl1, SEQ ID NO:3) (Trichoderma reesei, UniProt Q12715, V74F).
T2 construct: diluted fermentation product
T2 sequence (Q12715 32-744 V74F): T1 sequence (Q12715 32-744 V74L) with L43F
The data set can be described thus: steady state kinetics, hydrolysis of pNpG. The format is biochemical.
Description: as §1, §2

Data set [3] deals with T3, Trichoderma reesei beta-glucosidase I (Bgl1), wild type, SEQ ID NO:2 (mature SEQ ID NO:3) (Trichoderma reesei, UniProt Q12715).
T3 construct: secreted mature protein
T3 sequence (Q12715 32-744): T1 sequence (Q12715 32-744 V74L) with L43V
Nature of the data set: steady state kinetics, hydrolysis of pNpG. The format is biochemical. As to conditions: 0.1-9 mM, 37° C., 30 minutes.
Description: as §1, §2

Data set [4] deals with T4, Trichoderma reesei Bgl1 variant Bgl1-var-12, V43F/W237A (numbered per mature Bgl1, SEQ ID NO:3) (Trichoderma reesei, UniProt Q12715, V74F/W268A).
T4 construct: diluted fermentation product
T4 sequence (Q12715 32-744 V74F/W268A): T1 sequence (Q12715 32-744 V74L) with L43F, W237A
The data set can be described thus: steady state kinetics, hydrolysis of pNpG. Format: biochemical.
Description: as §1, §2

Data set [5] concerns the target T1, Trichoderma reesei Bgl1 variant Bgl1-var-03, V43L (numbered per mature Bgl1, SEQ ID NO:3). The data set can be described thus: steady state kinetics, hydrolysis of pNpX. The format is biochemical.
Description: as §1, §2
(§3) It was noted that the data for pNpX hydrolysis by the wild type Bgl1 could not be fitted with the Michaelis-Menten function. In order to calculate a Michalis constant the maximum velocity obtained for Variant 03 was used.

The target of data set [6] is T2, Trichoderma reesei Bgl1 variant Bgl1-var-02, V43F (numbered per mature Bgl1, SEQ ID NO:3). Nature of the data set: steady state kinetics, hydrolysis of pNpX. The format is biochemical.
Description: as §1, §2, §3

In data set [7] the target is T3, Trichoderma reesei beta-glucosidase I (Bgl1), wild type, SEQ ID NO:2 (mature SEQ ID NO:3). Nature of the data set: steady state kinetics, hydrolysis of pNpX. As to conditions: not fitted, maximum velocity obtained for Variant 03 was used. Format: biochemical.
Description: as §1, §2, §3

The target in data set [8] is T4, Trichoderma reesei Bgl1 variant Bgl1-var-12, V43F/W237A (numbered per mature Bgl1, SEQ ID NO:3). Nature of the data set: steady state kinetics, hydrolysis of pNpX. The format is biochemical.
Description: as §1, §2, §3

Substrate in data set [9]: O=[N+]([O-])c1ccc(O[C@@H]2O[C@H](CO)[C@@H](O)[C@H](O)[C@H]2O)cc1
The data set can be described thus: steady state kinetics, hydrolysis of pNpG. Format: biochemical, Trichoderma reesei. Particulars: other: pNpG, 0.1-9 mM, 37° C., 30 minutes.
Description: as §1, §2

Substrate in data set [10]: O=[N+]([O-])c1ccc(O[C@@H]2OC[C@@H](O)[C@H](O)[C@H]2O)cc1
The data set can be described thus: steady state kinetics, hydrolysis of pNpX. As to conditions: other: pNpX, 37° C. The format is biochemical, Trichoderma reesei.
Description: as §1, §2, §3

The mark [11] stands for this setting: pNpG, 0.1-9 mM, 37° C., 30 minutes.
The mark [12] stands for this setting: fold reduction versus wild type, Table 7.
Setting [13] is: pNpX, 0.1-9 mM, 37° C., 30 minutes.

The Km is the concentration of substrate that gives half-maximal velocity.

Numbering of substitutions follows the chain as printed. Numbers in names are those of the source.

As to `O=[N+]([O-])c1ccc(O[C@@H]2O[C@H](CO)[C@@H](O)[C@H](O)[C@H]2O)cc1` [pNpG, para-nitrophenol-beta-D-glucopyranoside], the “Relative Vmax” value in data set [1] (setting [11]) was 87 ± 2; in data set [2] (setting [11]) it was 46 ± 6; in [3], 100.0 ± 0.1; in data set [4] (setting [11]), 27 ± 10. Moreover, the “efficiency for hydrolysis of pNpG compared with Bgl1 wild type” value in [1] (versus wild type, Table 7) was “approximately equal”. For the same molecule, the “efficiency for hydrolysis of pNpG, reduced relative to Bgl1 wild type” value in data set [2] (setting [12]) was found to be 8 ×; in data set [4] (setting [12]), 26 ×.
For the molecule `O=[N+]([O-])c1ccc(O[C@@H]2OC[C@@H](O)[C@H](O)[C@H]2O)cc1` [pNpX, para-nitrophenol-beta-D-xylopyranoside], the “Relative Vmax” value was found to be 100 ± 4 in data set [5] (setting [13]), 93 ± 4 in [6] (setting [13]), 100 ± 4 in data set [7] and 89 ± 4 in data set [8] (setting [13]). The “more efficient hydrolysis of pNpX as compared to the wild type Bgl1” value in [5] (ratio to wild type, Table 6) is 6-7 fold; in [6] (ratio to wild type, Table 6), 6-7 fold. The “higher efficiency of pNpX hydrolysis than the wild type” value in data set [8] (ratio to wild type, Table 6) is reported as “about 2 ×”.

B1: Trichoderma reesei Bgl1 variant Bgl1-var-02, V43F (numbered per mature Bgl1, SEQ ID NO:3) (Trichoderma reesei; V74F) (protein)
chain: T1 sequence (Q12715 32-744 V74L) with L43F
notes: diluted fermentation product
As for B1, the Km was determined as 4.8 mM in [9] and 5.7 mM in data set [10] (0.1-9 mM, 30 minutes).

B2: Trichoderma reesei Bgl1 variant Bgl1-var-03, V43L (numbered per mature Bgl1, SEQ ID NO:3) (Trichoderma reesei; V74L) (protein)
chain: T1 sequence (Q12715 32-744 V74L)
notes: diluted fermentation product
As to B2, the Michaelis constant (Km) stood at 1.17 mM in data set [9] and 7 mM in data set [10] (0.1-9 mM, 30 minutes).

B3: Trichoderma reesei beta-glucosidase I (Bgl1), wild type, SEQ ID NO:2 (mature SEQ ID NO:3) (Trichoderma reesei) (protein)
chain: T1 sequence (Q12715 32-744 V74L) with L43V
notes: secreted mature protein
As to B3, the Km in data set [9] was 1.3 mM; in data set [10] (data could not be fitted, calculated with the maximum velocity obtained for Variant 03) it was 45.1 mM.

B4: Trichoderma reesei Bgl1 variant Bgl1-var-12, V43F/W237A (numbered per mature Bgl1, SEQ ID NO:3) (Trichoderma reesei; V74F/W268A) (protein)
chain: T1 sequence (Q12715 32-744 V74L) with L43F, W237A
notes: diluted fermentation product
As for B4, the Km was found to be 9.1 mM in data set [9] and 18.4 mM in [10] (0.1-9 mM, 30 minutes).

These data come from US20170362621A1, “ENGINEERED MULTIFUNCTIONAL ENZYMES AND METHODS OF USE” (Danisco US Inc., priority 2014, published 2017).
